Results as given in the supplement of paper PMC11451515.

Tested on: P12-Ichikawa
Assay: cell viability relative to DMSO control; higher = less cytotoxic
Settings: 48 h
Procedure, shortened: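 NOMO1, SEM and P12-Ichikawa leukemia cells spent at least four passages adapting to each medium before use. They were seeded at 500 cells/well (NOMO1, SEM) or 1000 cells/well (P12-Ichikawa) in 5 μl in 1536-well plates and pin-dosed with library compounds in DMSO at 11 threefold steps from 47 μM down to 0.79 nM. After 48 h at 37°C, CellTiter-Glo One luminescence was read. Viability is reported as a percentage of the DMSO wells on each plate, with cell-free wells as background.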

[1] = HPLM + 10% dialyzed FBS, 0.000781 µM
[2] = HPLM + 10% dialyzed FBS, 0.00234 µM
[3] = HPLM + 10% dialyzed FBS, 0.00702 µM
[4] = HPLM + 10% dialyzed FBS, 0.0211 µM
[5] = HPLM + 10% dialyzed FBS, 0.0632 µM
[6] = HPLM + 10% dialyzed FBS, 0.19 µM
[7] = HPLM + 10% dialyzed FBS, 0.569 µM
[8] = HPLM + 10% dialyzed FBS, 1.71 µM
[9] = HPLM + 10% dialyzed FBS, 5.12 µM
[10] = HPLM + 10% dialyzed FBS, 15.4 µM
[11] = HPLM + 10% dialyzed FBS, 46.1 µM
[12] = RPMI 5 mM glucose + 10% FBS, 0.000781 µM
[13] = RPMI 5 mM glucose + 10% FBS, 0.00234 µM
[14] = RPMI 5 mM glucose + 10% FBS, 0.00702 µM
[15] = RPMI 5 mM glucose + 10% FBS, 0.0211 µM
[16] = RPMI 5 mM glucose + 10% FBS, 0.0632 µM
[17] = RPMI 5 mM glucose + 10% FBS, 0.19 µM
[18] = RPMI 5 mM glucose + 10% FBS, 0.569 µM
[19] = RPMI 5 mM glucose + 10% FBS, 1.71 µM
[20] = RPMI 5 mM glucose + 10% FBS, 5.12 µM
[21] = RPMI 5 mM glucose + 10% FBS, 15.4 µM
[22] = RPMI 5 mM glucose + 10% FBS, 46.1 µM
[23] = RPMI 5 mM glucose + 10% dialyzed FBS, 0.000781 µM
[24] = RPMI 5 mM glucose + 10% dialyzed FBS, 0.00234 µM
[25] = RPMI 5 mM glucose + 10% dialyzed FBS, 0.00702 µM
[26] = RPMI 5 mM glucose + 10% dialyzed FBS, 0.0211 µM
[27] = RPMI 5 mM glucose + 10% dialyzed FBS, 0.0632 µM
[28] = RPMI 5 mM glucose + 10% dialyzed FBS, 0.19 µM
[29] = RPMI 5 mM glucose + 10% dialyzed FBS, 0.569 µM
[30] = RPMI 5 mM glucose + 10% dialyzed FBS, 1.71 µM
[31] = RPMI 5 mM glucose + 10% dialyzed FBS, 5.12 µM
[32] = RPMI 5 mM glucose + 10% dialyzed FBS, 15.4 µM
[33] = RPMI 5 mM glucose + 10% dialyzed FBS, 46.1 µM

COc1c(Cl)cc2c([nH]c3cnccc32)c1NC(=O)c1cccnc1C
cell viability [1]: 103%
cell viability [2]: 99.3%
cell viability [3]: 102%
cell viability [4]: 106%
cell viability [5]: 107%
cell viability [6]: 109%
cell viability [7]: 99%
cell viability [8]: 99.1%
cell viability [9]: 94.9%
cell viability [10]: 94.7%
cell viability [11]: 93.1%
cell viability [12]: 107%
cell viability [13]: 105%
cell viability [14]: 107%
cell viability [15]: 108%
cell viability [16]: 112%
cell viability [17]: 108%
cell viability [18]: 96.1%
cell viability [19]: 105%
cell viability [20]: 110%
cell viability [21]: 105%
cell viability [22]: 96.9%
cell viability [23]: 102%
cell viability [24]: 110%
cell viability [25]: 104%
cell viability [26]: 96.9%
cell viability [27]: 106%
cell viability [28]: 106%
cell viability [29]: 97.7%
cell viability [30]: 94.1%
cell viability [31]: 95.4%
cell viability [32]: 95.6%
cell viability [33]: 82.8%

Cc1nc(-c2ccc(OCC(C)C)c(C#N)c2)sc1C(=O)O
cell viability [1]: 114%
cell viability [2]: 124%
cell viability [3]: 122%
cell viability [4]: 117%
cell viability [5]: 119%
cell viability [6]: 117%
cell viability [7]: 112%
cell viability [8]: 116%
cell viability [9]: 119%
cell viability [10]: 106%
cell viability [11]: 92.7%

C[C@]12CC[C@H]3[C@@H](CC(=C)\C4=C\C(=O)\C=C/[C@]34C)[C@@H]1CCC2=O
cell viability [1]: 105%
cell viability [2]: 107%
cell viability [3]: 105%
cell viability [4]: 107%
cell viability [5]: 107%
cell viability [6]: 101%
cell viability [7]: 104%
cell viability [8]: 103%
cell viability [9]: 98%
cell viability [10]: 99%
cell viability [11]: 79.9%
cell viability [12]: 96.3%
cell viability [13]: 110%
cell viability [14]: 105%
cell viability [15]: 102%
cell viability [16]: 108%
cell viability [17]: 96.2%
cell viability [18]: 102%
cell viability [19]: 107%
cell viability [20]: 101%
cell viability [21]: 98%
cell viability [22]: 63.7%
cell viability [23]: 96.7%
cell viability [24]: 107%
cell viability [25]: 99.6%
cell viability [26]: 101%
cell viability [27]: 99.1%
cell viability [28]: 95.2%
cell viability [29]: 88.5%
cell viability [30]: 103%
cell viability [31]: 102%
cell viability [32]: 94.5%
cell viability [33]: 57.4%

NC1=NC(=O)N2CC12 (configuration not stated)
cell viability [1]: 91%
cell viability [2]: 103%
cell viability [3]: 101%
cell viability [4]: 107%
cell viability [5]: 103%
cell viability [6]: 97%
cell viability [7]: 103%
cell viability [8]: 99.7%
cell viability [9]: 83.1%
cell viability [10]: 3.88%
cell viability [11]: 2.17%
cell viability [12]: 92.5%
cell viability [13]: 91.2%
cell viability [14]: 96.2%
cell viability [15]: 102%
cell viability [16]: 106%
cell viability [17]: 97.4%
cell viability [18]: 104%
cell viability [19]: 67.8%
cell viability [20]: 59%
cell viability [21]: 2.82%
cell viability [22]: 0.916%
cell viability [23]: 85.3%
cell viability [24]: 94.6%
cell viability [25]: 92.1%
cell viability [26]: 90.9%
cell viability [27]: 87.4%
cell viability [28]: 88.5%
cell viability [29]: 95.6%
cell viability [30]: 73.5%
cell viability [31]: 59.9%
cell viability [32]: 6.25%
cell viability [33]: 2.73%

C/C1=C2/[N]3[Co+]456([OH])<-[N]7=C1[C@@H](CCC(N)=O)C(C)(C)/C7=C/C1=[N]->4C(=C(/C)C4=[N]->5[C@@](C)([C@H]3[C@H](CC(N)=O)[C@@]2(C)CCC(=O)NC[C@@H](C)OP(=O)([O-])O[C@H]2[C@@H](O)[C@@H](n3c[n]->6c5cc(C)c(C)cc53)O[C@@H]2CO)[C@@](C)(CC(N)=O)[C@@H]4CCC(N)=O)/[C@@](C)(CC(N)=O)[C@@H]1CCC(N)=O
cell viability [1]: 103%
cell viability [2]: 97.2%
cell viability [3]: 95.9%
cell viability [4]: 99.2%
cell viability [5]: 99.9%
cell viability [6]: 97.8%
cell viability [7]: 92.8%
cell viability [8]: 93.2%
cell viability [9]: 76.8%
cell viability [10]: 77.7%
cell viability [11]: 71.3%
cell viability [12]: 97.5%
cell viability [13]: 88.7%
cell viability [14]: 97.9%
cell viability [15]: 98.1%
cell viability [16]: 95.7%
cell viability [17]: 88.3%
cell viability [18]: 98.8%
cell viability [19]: 93.4%
cell viability [20]: 85.8%
cell viability [21]: 85.4%
cell viability [22]: 69.8%
cell viability [23]: 82.3%
cell viability [24]: 85.2%
cell viability [25]: 86.5%
cell viability [26]: 77.3%
cell viability [27]: 83%
cell viability [28]: 79.9%
cell viability [29]: 75.7%
cell viability [30]: 76.7%
cell viability [31]: 73.9%
cell viability [32]: 76.9%
cell viability [33]: 61%

C[C@H](NC(=O)Cc1cc(F)cc(F)c1)C(=O)N[C@H](C(=O)OC(C)(C)C)c1ccccc1
cell viability [1]: 94%
cell viability [2]: 90.9%
cell viability [3]: 94.9%
cell viability [4]: 94.1%
cell viability [5]: 94.6%
cell viability [6]: 92.5%
cell viability [7]: 89%
cell viability [8]: 88.3%
cell viability [9]: 86.9%
cell viability [10]: 88%
cell viability [11]: 80.4%
cell viability [12]: 92.3%
cell viability [13]: 91.7%
cell viability [14]: 91.2%
cell viability [15]: 87%
cell viability [16]: 90.7%
cell viability [17]: 95.4%
cell viability [18]: 89.1%
cell viability [19]: 82.7%
cell viability [20]: 87.9%
cell viability [21]: 87.6%
cell viability [22]: 92.8%
cell viability [23]: 78.9%
cell viability [24]: 82.5%
cell viability [25]: 79.8%
cell viability [26]: 79.7%
cell viability [27]: 86.1%
cell viability [28]: 88.8%
cell viability [29]: 78.2%
cell viability [30]: 86.1%
cell viability [31]: 83.7%
cell viability [32]: 77.4%
cell viability [33]: 73.3%

CCNC(=O)Nc1ccc(Oc2ncnc(N)c2/C=N/OC)cc1Cl
cell viability [1]: 107%
cell viability [2]: 114%
cell viability [3]: 107%
cell viability [4]: 116%
cell viability [5]: 123%
cell viability [6]: 119%
cell viability [7]: 119%
cell viability [8]: 118%
cell viability [9]: 106%
cell viability [10]: 101%
cell viability [11]: 120%
cell viability [12]: 111%
cell viability [13]: 113%
cell viability [14]: 117%
cell viability [15]: 117%
cell viability [16]: 121%
cell viability [17]: 128%
cell viability [18]: 126%
cell viability [19]: 121%
cell viability [20]: 117%
cell viability [21]: 111%
cell viability [22]: 131%
cell viability [23]: 106%
cell viability [24]: 116%
cell viability [25]: 119%
cell viability [26]: 122%
cell viability [27]: 124%
cell viability [28]: 123%
cell viability [29]: 118%
cell viability [30]: 122%
cell viability [31]: 119%
cell viability [32]: 107%
cell viability [33]: 107%

OC1=CC=C(C=C1)C/2=C/C3=C(OC2)C=C(O)C=C3
cell viability [1]: 109%
cell viability [2]: 91.7%
cell viability [3]: 111%
cell viability [4]: 117%
cell viability [5]: 109%
cell viability [6]: 116%
cell viability [7]: 104%
cell viability [8]: 80.2%
cell viability [9]: 19.8%
cell viability [10]: 2.76%
cell viability [11]: 1.12%
cell viability [12]: 108%
cell viability [13]: 121%
cell viability [14]: 123%
cell viability [15]: 110%
cell viability [16]: 126%
cell viability [17]: 111%
cell viability [18]: 107%
cell viability [19]: 88.2%
cell viability [20]: 24.3%
cell viability [21]: 1.45%
cell viability [22]: -0.00081%
cell viability [23]: 102%
cell viability [24]: 112%
cell viability [25]: 111%
cell viability [26]: 113%
cell viability [27]: 111%
cell viability [28]: 106%
cell viability [29]: 102%
cell viability [30]: 74.9%
cell viability [31]: 16.2%
cell viability [32]: 2.96%
cell viability [33]: 0.54%
